Data taken from patent US7998965B2, “Glutamate aggrecanase inhibitors” (Wyeth LLC, priority 2005, dated 2011).
pIC50, pKi: −log10 of the molar value. Where two headings read alike, the source gives them in different places.

Columns and labels:
[1] = molecular target: T1, purified recombinant human Aggrecanase-2 (Ag2t-Phe628-Strep) (Homo sapiens, UniProt Q9UNA0); assay: In vitro fluorescence screen for Aggrecanase-2 inhibitors; assay type: biochemical; conditions: for pIC50: read-out: Agg 2 IC50; for pKi: read-out: Ki Agg2
T1 construct: the form used is denoted as Ag2t-Phe628-Strep (MW=41,737)
T1 sequence (Q9UNA0 262-628): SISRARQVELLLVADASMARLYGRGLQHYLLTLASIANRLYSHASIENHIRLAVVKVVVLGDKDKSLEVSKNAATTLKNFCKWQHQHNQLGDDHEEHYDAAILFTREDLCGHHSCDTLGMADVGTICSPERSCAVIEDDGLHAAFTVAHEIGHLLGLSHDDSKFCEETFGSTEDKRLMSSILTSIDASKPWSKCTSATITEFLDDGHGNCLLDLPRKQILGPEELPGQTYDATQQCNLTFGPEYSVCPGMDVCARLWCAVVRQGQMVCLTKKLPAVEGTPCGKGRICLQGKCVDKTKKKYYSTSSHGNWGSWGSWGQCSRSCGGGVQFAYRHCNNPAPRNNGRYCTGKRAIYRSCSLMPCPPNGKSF

MMP-8 = MMP-8 (Homo sapiens, UniProt P22894); assay: MMP-8 of Table 3; assay type: biochemical; conditions: unit inferred
MMP-12 = MMP-12 (Homo sapiens, UniProt P39900); assay: MMP-12 of Table 3; assay type: biochemical; conditions: unit inferred
[2] = molecular target: T2, purified recombinant human Aggrecanase-1 (rAgg1) (Homo sapiens, UniProt O75173); assay: In vitro fluorescence screen for Aggrecanase-1 inhibitors; assay type: biochemical; conditions: for pIC50: read-out: Agg1 IC50; for pKi: read-out: Ki Agg1
T2 sequence (O75173 213-837): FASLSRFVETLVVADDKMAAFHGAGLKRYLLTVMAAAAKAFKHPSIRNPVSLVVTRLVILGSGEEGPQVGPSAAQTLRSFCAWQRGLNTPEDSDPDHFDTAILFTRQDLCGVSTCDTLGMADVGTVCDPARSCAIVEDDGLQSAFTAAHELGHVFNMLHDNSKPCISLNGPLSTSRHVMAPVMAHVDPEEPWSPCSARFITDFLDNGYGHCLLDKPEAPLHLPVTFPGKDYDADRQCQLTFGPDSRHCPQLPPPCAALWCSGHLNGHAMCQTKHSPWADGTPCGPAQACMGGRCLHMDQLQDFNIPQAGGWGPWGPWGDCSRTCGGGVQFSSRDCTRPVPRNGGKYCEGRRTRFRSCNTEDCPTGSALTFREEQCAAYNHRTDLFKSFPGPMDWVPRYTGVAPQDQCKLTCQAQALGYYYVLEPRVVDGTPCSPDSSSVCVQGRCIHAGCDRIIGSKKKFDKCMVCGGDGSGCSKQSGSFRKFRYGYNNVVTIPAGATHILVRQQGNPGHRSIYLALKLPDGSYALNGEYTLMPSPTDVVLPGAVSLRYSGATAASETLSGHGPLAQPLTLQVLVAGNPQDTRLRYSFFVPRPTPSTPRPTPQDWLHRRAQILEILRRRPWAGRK

recombinant human MMP-2 = molecular target: T3, recombinant human MMP-2 (Homo sapiens, UniProt P08253); assay: In vitro fluorescence assay of MMP-2 activity
T3 sequence (P08253 110-660): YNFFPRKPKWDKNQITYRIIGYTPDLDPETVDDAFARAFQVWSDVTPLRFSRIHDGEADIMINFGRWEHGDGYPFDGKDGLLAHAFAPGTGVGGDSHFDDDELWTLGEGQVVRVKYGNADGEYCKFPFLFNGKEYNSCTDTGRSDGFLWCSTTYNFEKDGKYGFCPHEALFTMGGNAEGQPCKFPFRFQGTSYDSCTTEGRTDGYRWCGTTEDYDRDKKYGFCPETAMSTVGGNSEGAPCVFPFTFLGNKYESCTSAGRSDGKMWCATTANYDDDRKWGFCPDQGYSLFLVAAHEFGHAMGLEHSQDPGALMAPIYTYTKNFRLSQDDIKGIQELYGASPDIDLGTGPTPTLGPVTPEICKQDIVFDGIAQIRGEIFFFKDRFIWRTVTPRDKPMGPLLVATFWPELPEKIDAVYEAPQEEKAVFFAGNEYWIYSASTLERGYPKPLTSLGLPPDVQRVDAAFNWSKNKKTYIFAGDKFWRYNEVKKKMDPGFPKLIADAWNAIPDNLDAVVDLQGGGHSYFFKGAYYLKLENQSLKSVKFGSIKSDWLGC

[3] = molecular target: T4, recombinant human catalytic domain of MMP-14 (Homo sapiens, UniProt P50281); assay: In vitro fluorescence assay of MMP-14 activity; assay type: biochemical; conditions: Table 1; unit inferred
T4 construct: 177 amino acids corresponding to Tyr89-Gly265 of mature human enzyme; purchased Chemicon International, Inc. CC1041

[4] = test system: bovine articular cartilage treated with Interleukin 1 alpha (IL-1α); assay: Bovine articular cartilage explant cultures: inhibition of degradation of proteoglycan; assay type: cell-based; conditions: inhibitory effect expressed as percentage, concentration not printed
Procedure, shortened: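 Bovine metacarpal cartilage discs (6 mm), equilibrated in serum-free DMEM-based medium, were treated with 5 ng/ml IL-1 plus compound (working solutions 0.1-10 μg/ml), with medium collected and replaced on days 1, 2 and 3. Released proteoglycan was measured by DMMB absorbance at 520 nm against chondroitin sulphate standards, expressed as μg per mg cartilage, and inhibition given as percentage.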

[5] = molecular target: T5, recombinant human catalytic domain of MMP-13 (Homo sapiens, UniProt P45452); assay: In vitro fluorescence assay of MMP-13 activity; assay type: biochemical; conditions: Table 1; unit inferred
T5 construct: catalytic domain of MMP-13 (165 amino acids, residues 104-268, 19 kDa)

MMP-1 = molecular target: T6, MMP-1 (Homo sapiens, UniProt P03956); assay: MMP-1 of Table 1; assay type: biochemical; conditions: unit inferred
T6 sequence (P03956 100-469): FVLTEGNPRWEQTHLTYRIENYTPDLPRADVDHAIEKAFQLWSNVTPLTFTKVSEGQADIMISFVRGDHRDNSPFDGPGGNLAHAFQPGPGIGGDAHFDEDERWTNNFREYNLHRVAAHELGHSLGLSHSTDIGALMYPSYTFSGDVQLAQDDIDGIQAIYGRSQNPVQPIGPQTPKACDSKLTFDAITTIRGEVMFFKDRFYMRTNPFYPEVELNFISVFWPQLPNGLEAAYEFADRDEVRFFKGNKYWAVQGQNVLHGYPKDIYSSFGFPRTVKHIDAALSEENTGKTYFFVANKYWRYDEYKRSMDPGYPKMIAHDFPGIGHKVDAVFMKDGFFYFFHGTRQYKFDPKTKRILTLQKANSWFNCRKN

Sequence of MMP-8 (P22894 101-467, species assumed): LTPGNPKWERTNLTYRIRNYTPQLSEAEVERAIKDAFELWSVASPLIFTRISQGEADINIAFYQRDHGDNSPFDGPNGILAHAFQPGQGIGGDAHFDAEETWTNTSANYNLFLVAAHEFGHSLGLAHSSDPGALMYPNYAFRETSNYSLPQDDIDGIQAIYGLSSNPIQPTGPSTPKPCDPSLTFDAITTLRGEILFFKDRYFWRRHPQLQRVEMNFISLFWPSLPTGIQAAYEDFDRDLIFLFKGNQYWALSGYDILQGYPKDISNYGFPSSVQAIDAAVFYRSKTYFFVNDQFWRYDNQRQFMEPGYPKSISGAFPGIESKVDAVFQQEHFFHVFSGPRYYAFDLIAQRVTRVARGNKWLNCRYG
Sequence of MMP-12 (P39900 106-470): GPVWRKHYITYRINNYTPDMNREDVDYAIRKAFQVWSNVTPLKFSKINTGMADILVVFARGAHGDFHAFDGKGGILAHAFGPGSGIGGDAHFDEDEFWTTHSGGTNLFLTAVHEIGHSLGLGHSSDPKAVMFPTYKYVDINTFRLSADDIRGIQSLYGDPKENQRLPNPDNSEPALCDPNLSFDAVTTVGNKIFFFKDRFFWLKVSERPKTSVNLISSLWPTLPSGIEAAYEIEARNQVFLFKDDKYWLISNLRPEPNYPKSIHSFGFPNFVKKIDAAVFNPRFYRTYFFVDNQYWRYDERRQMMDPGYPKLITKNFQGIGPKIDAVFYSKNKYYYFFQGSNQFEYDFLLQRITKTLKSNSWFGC

SMILES | pIC50 ([1]; Table 3) | pKi ([1]; Table 3) | pIC50 (MMP-8) | pIC50 (MMP-12) | pIC50 ([2]; Table 3) | pKi ([2]; Table 3) | pIC50 (recombinant human MMP-2) | inhibition at 0.14 µM ([1]; Table 3, at 140 (nM), read-out: Agg 2 % at concentration) [%] | pIC50 ([1]; Table 1) | pIC50 ([2]; Table 1) | pIC50 [3] | bovine ([4]; Table 1, first of two columns headed bovine) [%] | bovine ([4]; Table 1, second of two columns headed bovine) [%] | pIC50 [5] | pIC50 (MMP-1)
CC(C)(Cc1ccccc1)NC(=O)[C@H](CCC(=O)O)NC(=O)c1ccc(-c2ccc(F)cc2)s1 [N-(1,1-dimethyl-2-phenylethyl)-N^2-{[5-(4-fluorophenyl)-2-thienyl]carbonyl}-L-α-glutamine] | 6.52 to 7.52 | 6.90 | 5.59 | 5.54 | > 7.52 | 7.94 | 5.14 | – | – | – | – | – | – | – | –
CC(C)(Cc1ccc(Cl)cc1)NC(=O)[C@H](CCC(=O)O)NC(=O)c1ccc(-c2ccc(Cl)cc2)cc1 [Example 8XXXXXXXXX, N^2-[(4′-chlorobiphenyl-4-yl)carbonyl]-N-[2-(4-chlorophenyl)-1,1-dimethylethyl]-L-α-glutamine] | 7.60 | 7.15 | 5.75 | 6.22 | > 7.52 | 7.74 | 5.58 | – | – | – | – | – | – | – | –
CC(C)(Cc1ccc(Cl)cc1)NC(=O)[C@H](CCC(=O)O)NC(=O)c1ccc(-c2cccc(Cl)c2)cc1 [N^2-[(3′-chlorobiphenyl-4-yl)carbonyl]-N-[2-(4-chlorophenyl)-1,1-dimethylethyl]-L-α-glutamine] | 6.60 | 6.46 | 4.88 | 5.43 | > 7.52 | 7.40 | 4.59 | – | – | – | – | – | – | – | –
CC(C)(Cc1ccc(F)cc1)NC(=O)[C@H](CCC(=O)O)NC(=O)c1ccc(-c2ccc(Cl)s2)nc1 [N^2-{[6-(5-chloro-2-thienyl)pyridin-3-yl]carbonyl}-N-[2-(4-fluorophenyl)-1,1-dimethylethyl]-L-α-glutamine] | < 6.52 | 6.14 | < 5.30 | < 5.00 | > 7.52 | 7.38 | 5.89 | – | – | – | – | – | – | – | –
CC(C)(Cc1ccccc1)NC(=O)[C@H](CCC(=O)O)NC(=O)c1ccc(-c2ccc(F)cc2)cc1 [N-(1,1-dimethyl-2-phenylethyl)-N^2-[(4′-fluorobiphenyl-4-yl)carbonyl]-L-α-glutamine] | 7.05 | 6.66 | 6.12 | 6.20 | > 7.52 | 7.57 | 5.40 | – | – | – | – | – | – | – | –
CC(C)(Cc1ccccc1)NC(=O)[C@H](CCC(=O)O)NC(=O)c1ccc(-c2cccc(F)c2)cc1 [N-(1,1-dimethyl-2-phenylethyl)-N^2-[(3′-fluorobiphenyl-4-yl)carbonyl]-L-α-glutamine] | 7.10 | 6.74 | 5.60 | 5.97 | > 7.52 | 7.63 | 5.19 | – | – | – | – | – | – | – | –
CC(C)(Cc1ccc(Cl)s1)NC(=O)[C@H](CCC(=O)O)NC(=O)c1ccc(-c2cccc(F)c2)cc1 [Example 8XXXXXX, N-[2-(5-chloro-2-thienyl)-1,1-dimethylethyl]-N^2-[(3′-fluorobiphenyl-4-yl)carbonyl]-L-α-glutamine] | 7.70 | 7.22 | 5.39 | 5.80 | > 7.52 | > 8.52 | 5.12 | – | – | – | – | – | – | – | –
CC(C)(Cc1ccccc1)NC(=O)[C@H](CCC(=O)O)NC(=O)c1ccc(-c2ccc(Cl)cc2)s1 [N^2-{[5-(4-chlorophenyl)-2-thienyl]carbonyl}-N-(1,1-dimethyl-2-phenylethyl)-L-α-glutamine] | 6.52 to 7.00 | 6.69 | 5.65 | 5.65 | > 7.52 | 7.54 | 5.16 | – | – | – | – | – | – | – | –
CC(C)(Cc1ccc(F)cc1)NC(=O)[C@H](CCC(=O)O)NC(=O)c1ccc(-c2ccc(Cl)cc2)s1 [N^2-{[5-(4-chlorophenyl)-2-thienyl]carbonyl}-N-[2-(4-fluorophenyl)-1,1-dimethylethyl]-L-α-glutamine] | < 7.00 | 6.39 | 5.47 | < 5.00 | > 7.52 | 7.93 | 5.10 | – | – | – | – | – | – | – | –
CC(C)(Cc1ccc(F)cc1)NC(=O)[C@H](CCC(=O)O)NC(=O)c1ccc(-c2ccc(F)c(F)c2)cc1 [Example 8YYYYYY, N^2-[(3′,4′-difluorobiphenyl-4-yl)carbonyl]-N-[2-(4-fluorophenyl)-1,1-dimethylethyl]-L-α-glutamine] | 7.52 | 6.80 | 6.13 | 6.44 | > 7.52 | 7.87 | 5.33 | – | – | – | – | – | – | – | –
Cc1ccc(-c2ccc(C(=O)N[C@@H](CCC(=O)O)C(=O)NC(C)(C)Cc3ccc(F)cc3)cc2)s1 [Example 8VVVVVVV, N-[2-(4-fluorophenyl)-1,1-dimethylethyl]-N^2-[4-(5-methyl-2-thienyl)benzoyl]-L-α-glutamine] | – | 6.52 | 6.39 | 6.11 | > 7.52 | 8.15 | 6.24 | 51 | – | – | – | – | – | – | –
CC(C)(Cc1ccc(F)cc1)NC(=O)[C@H](CCC(=O)O)NC(=O)c1ccc(-c2ccc(F)cc2)s1 [Example 8ZZZZZZZZZ, N-[2-(4-fluorophenyl)-1,1-dimethylethyl]-N^2-{[5-(4-fluorophenyl)-2-thienyl]carbonyl}-L-α-glutamine] | 7.05 to 7.52 | 6.91 | 5.61 | 5.54 | > 7.52 | 8.33 | 5.08 | – | – | – | – | – | – | – | –
CCCCNC(=O)[C@H](CCC(=O)O)NC(=O)c1ccc(-c2ccccc2)cc1 [Example 8C, N^2-(1,1′-biphenyl-4-ylcarbonyl)-N^1-butyl-L-α-glutamine] | – | – | – | – | – | – | 5.22 | – | 5.92 | 6.96 | ~4.60 | 68 | 34 | ~4.30 | < 4.00
